Source: ChEMBL document CHEMBL4251597, “Discovery and evolution of aloperine derivatives as a new family of HCV inhibitors with novel mechanism” (Eur J Med Chem, 2018)
Activity calls are given as the source filed them. The calls are words filed in the database; no cut-off is given here.

Legend:
[1] = system: Hepatitis C virus; assay: Antiviral activity against HCV J6/JFH/JC-1 infected in human Huh7.5 cells assessed as inhibition of viral RNA replication after 72 hrs by qRT-PCR method; type: functional, organism-based, Hepacivirus hominis; conditions: J6/JFH/JC-1, Huh7.5, 72 h
[2] = Cytotoxicity against human Huh7.5 cells after 72 hrs by MTT assay; type: cell-based
[3] = Selectivity index, ratio of CC50 for human Huh7.5 cells to EC50 for HCV J6/JFH/JC-1; type: toxicity; conditions: read-out: Ratio CC50/EC50
[4] = Tmax in mouse at 25 mg/kg, po after 0.25 to 6 hrs; type: ADME, organism-based; conditions: in vivo
[5] = Cmax in mouse at 25 mg/kg, po after 0.25 to 6 hrs; type: ADME, organism-based; parameters: dose 25 mg/kg, route oral; conditions: in vivo
[6] = AUC (0 to t) in mouse at 25 mg/kg, po after 0.25 to 6 hrs; type: ADME, organism-based; parameters: time upper 6 hr, time lower 0.25 hr, dose 25 mg/kg, route oral; conditions: in vivo
[7] = MRT in mouse at 25 mg/kg, po after 0.25 to 6 hrs; type: ADME, organism-based; conditions: in vivo
[8] = Half life in mouse at 25 mg/kg, po after 0.25 to 6 hrs; type: ADME, organism-based; conditions: in vivo
[9] = Acute toxicity in po dosed Kunming mouse measured for 7 days; type: organism-based; conditions: in vivo
[10] = system: Hepatitis C virus; assay: Antiviral activity against HCV J6/JFH/JC-1 infected in human Huh7.5 cells assessed as inhibition of NS3/4A levels after 72 hrs by Western blot method; type: functional, organism-based; conditions: Hepacivirus hominis
[11] = system: Hepatitis C virus; assay: Antiviral activity against HCV J6/JFH/JC-1 infected in human Huh7.5 cells assessed as inhibition of viral core protein levels after 72 hrs by Western blot method; type: functional, organism-based; conditions: Hepacivirus hominis
[12] = system: Hepatitis C virus; assay: Antiviral activity against HCV J6/JFH/JC-1 infected in human Huh7.5 cells assessed as inhibition of viral core protein levels at 0.5 uM by Western blot method; type: functional, organism-based; conditions: Hepacivirus hominis, TDE = time-dependent effect
[13] = system: Hepatitis C virus; assay: Antiviral activity against HCV J6/JFH/JC-1 infected in human Huh7.5 cells assessed as inhibition of NS3/4A protein levels at 0.5 uM by Western blot method; type: functional, organism-based; conditions: Hepacivirus hominis, TDE = time-dependent effect
[14] = system: Hepatitis C virus; assay: Antiviral activity against HCV J6/JFH/JC-1 infected in human Huh7.5 cells assessed as inhibition of NS3/4A A156T mutant levels at 20 uM treated with fresh media containing compound every 2 days by Western blot method; type: functional, organism-based; conditions: Hepacivirus hominis
[15] = system: Hepatitis C virus; assay: Antiviral activity against HCV J6/JFH/JC-1 infected in human Huh7.5 cells assessed as inhibition of NS3/4A D168V mutant levels at 20 uM treated with fresh media containing compound every 2 days by Western blot method; type: functional, organism-based; conditions: Hepacivirus hominis
[16] = system: Hepatitis C virus; assay: Antiviral activity against HCV J6/JFH/JC-1 infected in human Huh7.5 cells assessed as inhibition of NS3/4A S282T mutant levels at 20 uM treated with fresh media containing compound every 2 days by Western blot method; type: functional, organism-based; conditions: Hepacivirus hominis
[17] = system: Hepatitis C virus; assay: Antiviral activity against HCV J6/JFH/JC-1 infected in human Huh7.5 cells harboring NS3/4A A156T mutant assessed as inhibition of viral core protein levels at 20 uM treated with fresh media containing compound every 2 days by Western blot method; type: functional, organism-based; conditions: Hepacivirus hominis
[18] = system: Hepatitis C virus; assay: Antiviral activity against HCV J6/JFH/JC-1 infected in human Huh7.5 cells harboring NS3/4A D168V mutant assessed as inhibition of viral core protein levels at 20 uM treated with fresh media containing compound every 2 days by Western blot method; type: functional, organism-based; conditions: Hepacivirus hominis
[19] = system: Hepatitis C virus; assay: Antiviral activity against HCV J6/JFH/JC-1 infected in human Huh7.5 cells harboring […] S282T mutant assessed as inhibition of viral core protein levels at 20 uM treated with fresh media containing compound every 2 days by Western blot method; type: functional, organism-based; conditions: Hepacivirus hominis
[20] = system: Hepatitis C virus; assay: Antiviral activity against HCV J6/JFH/JC-1 infected in human Huh7.5 cells assessed as inhibition of NS3/4A levels at 10 uM treated with fresh media containing compound every 2 days in presence of NS3/4A inhibitor simeprevir by Western blot method; type: functional, organism-based; conditions: Hepacivirus hominis
[21] = system: Hepatitis C virus; assay: Antiviral activity against HCV J6/JFH/JC-1 infected in human Huh7.5 cells assessed as inhibition of viral core protein levels at 10 uM treated with fresh media containing compound every 2 days in presence of NS3/4A inhibitor simeprevir by Western blot method; type: functional, organism-based; conditions: Hepacivirus hominis
[22] = system: Hepatitis C virus; assay: Antiviral activity against HCV J6/JFH/JC-1 infected in human Huh7.5 cells assessed as inhibition of NS3/4A levels at 10 uM treated with fresh media containing compound every 2 days in presence of NS5B inhibitor sofosbuvir by Western blot method; type: functional, organism-based; conditions: Hepacivirus hominis
[23] = system: Hepatitis C virus; assay: Antiviral activity against HCV J6/JFH/JC-1 infected in human Huh7.5 cells assessed as inhibition of NS3/4A levels at 10 uM treated with fresh media containing compound every 2 days in presence of NS5A inhibitor daclatasvir by Western blot method; type: functional, organism-based; conditions: Hepacivirus hominis
[24] = system: Hepatitis C virus; assay: Antiviral activity against HCV J6/JFH/JC-1 infected in human Huh7.5 cells assessed as inhibition of viral core protein levels at 10 uM treated with fresh media containing compound every 2 days in presence of NS5B inhibitor sofosbuvir by Western blot method; type: functional, organism-based; conditions: Hepacivirus hominis
[25] = system: Hepatitis C virus; assay: Antiviral activity against HCV J6/JFH/JC-1 infected in human Huh7.5 cells assessed as inhibition of viral core protein levels at 10 uM treated with fresh media containing compound every 2 days in presence of NS5A inhibitor daclatasvir by Western blot method; type: functional, organism-based; conditions: Hepacivirus hominis
[26] = system: Hepatitis C virus; assay: Antiviral activity against HCV infected in human GS4.3 cells assessed as inhibition of NS3/4A levels at 20 uM treated with fresh media containing compound every 2 days measured after 6 days by Western blot method; type: functional, organism-based; conditions: Hepacivirus hominis
[27] = system: Hepatitis C virus; assay: Antiviral activity against HCV infected in human GS4.3 cells assessed as inhibition of viral core protein levels at 20 uM treated with fresh media containing compound every 2 days measured after 6 days by Western blot method; type: functional, organism-based; conditions: Hepacivirus hominis
[28] = target: Hepatitis C virus serine protease, NS3/NS4A (Hepatitis C virus) (UniProt D2K2A8+A3EZI9); assay: Inhibition of HCV NS3/4A protease at 200 uM; type: protein-complex assay; conditions: Hepacivirus hominis
[29] = system: Hepatitis C virus; assay: Antiviral activity against HCV J6/JFH/JC-1 infected in human Huh7.5 cells assessed as inhibition of NS3/4A levels at 20 uM incubated for 2 to 24 hrs measured within 72 hrs by Western blot method; type: functional, organism-based; conditions: Hepacivirus hominis
[30] = system: Hepatitis C virus; assay: Antiviral activity against HCV J6/JFH/JC-1 infected in human Huh7.5 cells assessed as inhibition of viral core protein levels at 20 uM incubated for 2 to 24 hrs measured within 72 hrs by Western blot method; type: functional, organism-based; conditions: Hepacivirus hominis
[31] = system: Hepatitis C virus; assay: Antiviral activity against HCV J6/JFH/JC-1 infected in human Huh7.5 cells assessed as inhibition of NS3/4A levels at 20 uM preincubated for 2 hrs followed addition of Huh7.5 cells for 4 hrs measured within 72 hrs by Western blot method; type: functional, organism-based; conditions: Hepacivirus hominis
[32] = system: Hepatitis C virus; assay: Antiviral activity against HCV J6/JFH/JC-1 infected in human Huh7.5 cells assessed as inhibition of viral core protein levels at 20 uM preincubated for 2 hrs followed addition of Huh7.5 cells for 4 hrs measured within 72 hrs by Western blot method; type: functional, organism-based; conditions: Hepacivirus hominis
[33] = system: Hepatitis C virus; assay: Antiviral activity against 22.5 to 90 IU/cell of HCV J6/JFH/JC-1 infected in human Huh7.5 cells assessed as inhibition of NS3/4A levels at 20 uM treated with fresh media containing compound every 2 days by Western blot method; type: functional, organism-based; conditions: Hepacivirus hominis
[34] = system: Hepatitis C virus; assay: Antiviral activity against 22.5 to 90 IU/cell of HCV J6/JFH/JC-1 infected in human Huh7.5 cells assessed as inhibition of viral core protein levels at 20 uM treated with fresh media containing compound every 2 days by Western blot method; type: functional, organism-based; conditions: Hepacivirus hominis

CN1CCN(S(=O)(=O)N2CCCC3=C[C@H]4C[C@H](CN5CCCC[C@H]45)[C@@H]32)CC1
EC50 [1]: 3.56 µM | CC50 at 72 h [2]: > 500 µM | selectivity ratio [3]: > 140 | Tmax [4]: 1 h | Cmax [5]: 1370 nM | AUC(0-t) [6]: 7.6 µM·h | MRT [7]: 6.11 h | half-life [8]: 9.47 h | LD50 at 168 h [9]: > 1000 mg/kg | inhibition [10]: Dose-dependent effect | inhibition [11]: Dose-dependent effect | inhibition [12]: Tde | inhibition [13]: Tde | inhibition [14]: Active | inhibition [15]: Active | inhibition [16]: Active | inhibition [17]: Active | inhibition [18]: Active | inhibition [19]: Active | inhibition [20]: Active | inhibition [21]: Active | inhibition [22]: Active | inhibition [23]: Active | inhibition [24]: Active | inhibition [25]: Active | inhibition [26]: Active | inhibition [27]: Active | inhibition [28]: inactive | inhibition [29]: Active | inhibition [30]: Active | inhibition [31]: Active | inhibition [32]: Active | inhibition [33]: Active | inhibition [34]: Active
